# Test results published in US20250085295A1, “METHODS FOR MEASURING INTERACTIONS BETWEEN PROTEINS COMPRISING AN FC PORTION AND PARTICLES” (NANOTEMPER TECHNOLOGIES GMBH, priority 2023, published 2025).
# Columns and labels:
# IgG antibody = details: literature DOI cited; read-out: affinity of Fc-binding peptide to IgG antibody; cited from earlier work
# Trastuzumab [1] = assay: Spectral shift (SpS, 670/650 nm ratio) dose-response of fluorescent peptide tracer vs Trastuzumab; type: binding; details: for binding affinity of fluorescent peptide to Trastuzumab, spectral shift response (SpS): 2.4 nM peptide, Trastuzumab dilution series up to 2062.5 nM, excitation 591 nm, 650/670 nm, FIGS. 1 and 2
# Experimental: (§1) The fluorescent peptide tracer was dissolved in 100% DMSO to obtain stock solutions of 2.4 mM for FcIII and FcT. Subsequently, 16 or 24 point 1-to-1 dilution series of unlabeled Trastuzumab antibodies with stock concentrations of 825 µM were prepared leading to final assay concentrations of 2062.5 nM for Trastuzumab and a FCT and FcIII concentration of 2.4 nM. Samples were loaded into Dianthus 384-well plates (DI-P001A, NanoTemper Technologies) or polymer-coated borosilicate glass capillaries (Monolith NT.115 Premium Capillaries, MO-K025, NanoTemper Technologies). Measurements were taken with Nano Temper Software (MO.Control 2, DI.Control) by excitation at 591 nm and recording of fluorescence traces at 650 nm and 670 nm. For results showing TRIC results, simultaneous induction heat via an IR laser was induced and the thermophoretic behavior recorded for 5s.
# To evaluate the importance of the right affinity for this labeling approach, also a fluorescent peptide tracer was designed based on previously published findings based on a combinatorial tetrapeptide library (Camperi et al., Biotechnol Lett (2003), 25:1545-1548). To this end, the tetrapeptide APAR, which was previously found to bind to Immunoglobulin G was synthesized with an N-terminal lysine to accommodate further conjugation with Cy5 dye. The resulting fluorescent peptide tracer Cy5-KAPAR (cf. SEQ ID NO: 9) was dissolved in 100% DMSO to obtain stock solutions of 4.96 mM. The stock solution was further diluted in PBS-P. Subsequently 24 point 1-to-1 dilution series of unlabeled Trastuzumab antibody with stock concentrations of 825 μM were prepared leading to final assay concentrations of 412 μM for Trastuzumab and a Cy5-KAPAR (cf. SEQ ID NO: 9) concentration of 2.5 nM. Samples were loaded into Dianthus 384-well plates (DI-P001A, NanoTemper Technologies). Measurements were taken with Nano Temper Software (DI.Control) by excitation at 591 nm and recording of fluorescence traces at 650 nm and 670 nm. […] Such affinities result in required assay concentrations of over 100 μM in ligand-binding assays, which can hardly be achieved due to antibody solubility and availability. Furthermore, only affinities lower than the used concentration of antibody could reliable be determined, severely limiting the approach.
# [2] = molecular target: T1, Her2/ERBB2 Protein, Human, Recombinant (ECD, His Tag) (Homo sapiens, UniProt P04626); assay: Interaction of Her2 with labeled Trastuzumab in spectral shift (SpS); type: binding; details: 4 nM Trastuzumab, 2.4 nM tracer, Her2 up to 220 nM; FIGS. 5 and 7
# T1 construct: Her2/ERBB2 Protein, Human, Recombinant (ECD, His Tag); His tag; purchased Sino Biological 10004-H08H
# Experimental: (§2) The fluorescent peptide tracer was dissolved in 100% DMSO to obtain stock solutions of 2.4 mM for FcIII and FcT. Peptide tracers were mixed with 8 nM Trastuzumab and incubated for 15 min. Subsequently, 16 or 24 point 1-to-1 dilution series of Her2 were prepared and mixed 1:1 with prepared peptide: trastuzumab dilution, leading to final assay concentrations of 4 nM for Trastuzumab, 2.4 nM FcT and FcIII, and 220 nM as highest in-assay concentration of Her2. Samples were loaded into Dianthus 384-well plates (DI-P001A, NanoTemper Technologies) or polymer-coated borosilicate glass capillaries (Monolith NT.115 Premium Capillaries, MO-K025, NanoTemper Technologies). Measurements were taken with Nano Temper Software (MO.Control 2, DI.Control) by excitation at 591 nm and recording of fluorescence traces at 650 nm and 670 nm. For results showing TRIC results, simultaneous heat via an IR laser was induced and the thermophoretic behavior recorded for 5s.
# (§3) For NHS labeling of Trastuzumab, NHS labeling kit 2nd generation (NanoTemper Technologies) was used. In short, Trastuzumab was exchanged into NHS labeling buffer and mixed with NHS-NTT dye. After incubation in the dark for 30 min, unreacted dye was separated using a B-column provided with the kit. Eluting fractions containing 2.5 µM labeled Trastuzumab were collected and stored at −80° C.
# [3] = molecular target: T1, Her2/ERBB2 Protein, Human, Recombinant (ECD, His Tag); assay: Interaction of Her2 with labeled Trastuzumab in TRIC 670 nm; type: binding; details: 4 nM Trastuzumab, 2.4 nM tracer, Her2 up to 220 nM; FIGS. 6 and 8
# Experimental: as §2, §3
# Trastuzumab [4] = assay: TRIC signal at 670 nm, dose-response of fluorescent peptide tracer vs Trastuzumab; type: binding; details: 2.4 nM peptide, Trastuzumab dilution series, IR laser heating 5 s, FIGS. 3 and 4
# Experimental: as §1
# [5] = Thermal unfolding analysis using Fc-peptide labeling (670/650 nm ratio, first derivative); type: physicochemical; details: free FcIII without antibody, heating 1° C./min; FIG. 14A, 14B
# Experimental: The fluorescent peptide tracer was dissolved in 100% DMSO to obtain stock solutions of 2.4 mM for FcIII. […] Samples were loaded into capillaries, excited at 591 nm and fluorescence was recorded at 650 and 670 nm. Samples were heated a rate of 1° C./min while recording fluorescence signals.
# IgA antibody = details: literature DOI cited; read-out: affinity of Fc-binding peptide to IgA antibody; cited from earlier work
substance,measurement,setting,value
KHRFNKD,Kd,IgG antibody,20 nM
"[Cyc(2,12)]NTTred-DCAWHLGELVWCT-OH [FcT]","binding affinity of fluorescent peptide to Trastuzumab, spectral shift response (SpS)",Trastuzumab [1],Clear binding with nanomolar affinities
same,"binding of Her2 to Trastuzumab labeled with the peptide tracer, spectral shift dose-response",[2],clearly show the binding of Her2
same,"binding of Her2 to Trastuzumab labeled with the peptide tracer, TRIC signal dose-response",[3],clearly show the binding of Her2
same,"binding affinity of fluorescent peptide to Trastuzumab, TRIC",Trastuzumab [4],Clear binding with nanomolar affinities
DCAWHLGELVWCT [Fc-III],Kd,IgG antibody,16 to 25 nM
"low affinity fluorescent peptide tracer, tetrapeptide APAR with N-terminal lysine conjugated with Cy5 (cf. SEQ ID NO: 9) [Cy5-KAPAR, Cy5-KAPAR-OH]",ratiometric change in the 670/650 nm fluorescence upon binding of Trastuzumab,"Trastuzumab [1]; 2.5 nM Cy5-KAPAR, Trastuzumab up to 412 μM",large ratiometric change
same,Kd,"Trastuzumab [1]; 2.5 nM Cy5-KAPAR, Trastuzumab up to 412 μM, spectral shift 670/650 nm, read-out: affinity to Trastuzumab (estimated, saturation not reached)",> 60000 nM
L-Pro DCAWHLGELVWCT D-Pro [FcBP2],Kd,IgG antibody,1.8 nM
RRGW,Kd,IgG antibody,0.5 nM
CDCAWHLGELVWCTC [Fc-III-4C],Kd,IgG antibody,2.5 nM
"[Cyc(2,12)]Cy5-DCAWHLGELVWCT-NH2 [FcIII]","binding affinity of fluorescent peptide to Trastuzumab, spectral shift response (SpS)",Trastuzumab [1],Clear binding with nanomolar affinities
same,"binding of Her2 to Trastuzumab labeled with the peptide tracer, spectral shift dose-response",[2],clearly show the binding of Her2
same,"thermal profile, unfolding events in the first derivative",[5],no distinct unfolding events
same,"binding of Her2 to Trastuzumab labeled with the peptide tracer, TRIC signal dose-response",[3],clearly show the binding of Her2
same,"binding affinity of fluorescent peptide to Trastuzumab, TRIC",Trastuzumab [4],Clear binding with nanomolar affinities
HQVCLSYRGRPVCFST,Kd,IgA antibody,72 nM
